Laboratory results as given in patent US20230085307A1, “PYRIDAZINONE COMPOUND AND HERBICIDE” (NISSAN CHEMICAL CORPORATION, priority 2019, published 2023).

Key:
barnyard grass [1] = assay: Test Example 3: herbicidal effect by foliage application, Wagner pot (Table 18, symbol H); assay type: in vivo, barnyard grass (Echinochloa crus-galli); settings: amount of applied herbicide 320 g/ha
Outline: (§1)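 Plants were sown in alluvial soil held under 0.1–0.5 cm standing water and grown 14 days in a greenhouse at 25–30 °C. An emulsifiable formulation, water-diluted to the set dose, was then sprayed onto the foliage, and effects were scored three weeks later using previously defined criteria.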

Chinese sprangletop = assay: Test Example 3: herbicidal effect by foliage application, Wagner pot (Table 18, symbol D); assay type: in vivo, chinese sprangletop (Leptochloa chinensis); settings: amount of applied herbicide 320 g/ha
Outline: as §1

rice flat sedge = assay: Test Example 3: herbicidal effect by foliage application, Wagner pot (Table 18, symbol E); assay type: in vivo, rice flat sedge (Cyperus iria); settings: amount of applied herbicide 320 g/ha
Outline: as §1

southern crabgrass [2] = assay: Test Example 4: herbicidal effect by soil treatment (Table 19, symbol F); assay type: in vivo, southern crabgrass (Digitaria ciliaris); settings: amount of applied herbicide 320 g/ha
Outline: (§2)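 In this soil treatment, the formulated compound reached the seeds only through the soil: seeds were buried about 1.5 cm deep in sterilized diluvial soil, then the diluted emulsion was sprayed over the surface. After three weeks at 25° C. to 30° C. in a greenhouse, effects were graded on criteria from an earlier test.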

green foxtail [3] = assay: Test Example 4: herbicidal effect by soil treatment (Table 19, symbol G); assay type: in vivo, green foxtail (Setaria viridis); settings: amount of applied herbicide 320 g/ha
Outline: as §2

barnyard grass [4] = assay: Test Example 4: herbicidal effect by soil treatment (Table 19, symbol H); assay type: in vivo, barnyard grass (Echinochloa crus-galli); settings: amount of applied herbicide 320 g/ha
Outline: as §2

wild oat [5] = assay: Test Example 4: herbicidal effect by soil treatment (Table 19, symbol I); assay type: in vivo, wild oat (Avena fatua); settings: amount of applied herbicide 320 g/ha
Outline: as §2

blackgrass [6] = assay: Test Example 4: herbicidal effect by soil treatment (Table 19, symbol J); assay type: in vivo, blackgrass (Alopecurus myosuroides); settings: amount of applied herbicide 320 g/ha
Outline: as §2

Italian ryegrass [7] = assay: Test Example 4: herbicidal effect by soil treatment (Table 19, symbol K); assay type: in vivo, Italian ryegrass (Lolium multiflorum); settings: amount of applied herbicide 320 g/ha
Outline: as §2

windgrass [8] = assay: Test Example 4: herbicidal effect by soil treatment (Table 19, symbol L); assay type: in vivo, windgrass (Apera spica-venti); settings: amount of applied herbicide 320 g/ha
Outline: as §2

velvetleaf [9] = assay: Test Example 4: herbicidal effect by soil treatment (Table 19, symbol M); assay type: in vivo, velvetleaf (Abutilon theophrasti); settings: amount of applied herbicide 320 g/ha
Outline: as §2

redroot pigweed [10] = assay: Test Example 4: herbicidal effect by soil treatment (Table 19, symbol N); assay type: in vivo, redroot pigweed (Amaranthus retroflexus); settings: amount of applied herbicide 320 g/ha
Outline: as §2

lambsquarters [11] = assay: Test Example 4: herbicidal effect by soil treatment (Table 19, symbol O); assay type: in vivo, lambsquarters (Chenopodium album); settings: amount of applied herbicide 320 g/ha
Outline: as §2

chickweed [12] = assay: Test Example 4: herbicidal effect by soil treatment (Table 19, symbol P); assay type: in vivo, common chickweed (Stellaria media); settings: amount of applied herbicide 320 g/ha
Outline: as §2

persian speedwell [13] = assay: Test Example 4: herbicidal effect by soil treatment (Table 19, symbol R); assay type: in vivo, Persian speedwell (Veronica persica); settings: amount of applied herbicide 320 g/ha
Outline: as §2

southern crabgrass [14] = assay: Test Example 5: herbicidal effect by foliage application, plastic box (Table 20, symbol F); assay type: in vivo, southern crabgrass (Digitaria ciliaris); settings: foliage application, 320 g/ha, three weeks after application
Outline: (§3)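 Plants were sown into sterilized diluvial soil under about 1.5 cm cover and kept in a greenhouse at 25° C. to 30° C. Fourteen days on, foliage received an even spray of the diluted emulsion. Herbicidal or crop effect was judged three weeks afterwards.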

green foxtail [15] = assay: Test Example 5: herbicidal effect by foliage application, plastic box (Table 20, symbol G); assay type: in vivo, green foxtail (Setaria viridis); settings: foliage application, 320 g/ha, three weeks after application
Outline: as §3

barnyard grass [16] = assay: Test Example 5: herbicidal effect by foliage application, plastic box (Table 20, symbol H); assay type: in vivo, barnyard grass (Echinochloa crus-galli); settings: foliage application, 320 g/ha, three weeks after application
Outline: as §3

wild oat [17] = assay: Test Example 5: herbicidal effect by foliage application, plastic box (Table 20, symbol I); assay type: in vivo, wild oat (Avena fatua); settings: foliage application, 320 g/ha, three weeks after application
Outline: as §3

blackgrass [18] = assay: Test Example 5: herbicidal effect by foliage application, plastic box (Table 20, symbol J); assay type: in vivo, blackgrass (Alopecurus myosuroides); settings: foliage application, 320 g/ha, three weeks after application
Outline: as §3

Italian ryegrass [19] = assay: Test Example 5: herbicidal effect by foliage application, plastic box (Table 20, symbol K); assay type: in vivo, Italian ryegrass (Lolium multiflorum); settings: foliage application, 320 g/ha, three weeks after application
Outline: as §3

windgrass [20] = assay: Test Example 5: herbicidal effect by foliage application, plastic box (Table 20, symbol L); assay type: in vivo, windgrass (Apera spica-venti); settings: foliage application, 320 g/ha, three weeks after application
Outline: as §3

velvetleaf [21] = assay: Test Example 5: herbicidal effect by foliage application, plastic box (Table 20, symbol M); assay type: in vivo, velvetleaf (Abutilon theophrasti); settings: foliage application, 320 g/ha, three weeks after application
Outline: as §3

redroot pigweed [22] = assay: Test Example 5: herbicidal effect by foliage application, plastic box (Table 20, symbol N); assay type: in vivo, redroot pigweed (Amaranthus retroflexus); settings: foliage application, 320 g/ha, three weeks after application
Outline: as §3

lambsquarters [23] = assay: Test Example 5: herbicidal effect by foliage application, plastic box (Table 20, symbol O); assay type: in vivo, lambsquarters (Chenopodium album); settings: foliage application, 320 g/ha, three weeks after application
Outline: as §3

chickweed [24] = assay: Test Example 5: herbicidal effect by foliage application, plastic box (Table 20, symbol P); assay type: in vivo, common chickweed (Stellaria media); settings: foliage application, 320 g/ha, three weeks after application
Outline: as §3

persian speedwell [25] = assay: Test Example 5: herbicidal effect by foliage application, plastic box (Table 20, symbol R); assay type: in vivo, Persian speedwell (Veronica persica); settings: foliage application, 320 g/ha, three weeks after application
Outline: as §3

SMILES | herbicidal effect on H: barnyard grass (barnyard grass [1]) | herbicidal effect on D: Chinese sprangletop (Chinese sprangletop) | herbicidal effect on E: rice flat sedge (rice flat sedge) | F: southern crabgrass, herbicidal effect grade (southern crabgrass [14]) | G: green foxtail, herbicidal effect grade (green foxtail [15]) | H: barnyard grass, herbicidal effect grade (barnyard grass [16]) | I: wild oat, herbicidal effect grade (wild oat [17]) | J: blackgrass, herbicidal effect grade (blackgrass [18]) | K: Italian ryegrass, herbicidal effect grade (Italian ryegrass [19]) | L: windgrass, herbicidal effect grade (windgrass [20]) | M: velvetleaf, herbicidal effect grade (velvetleaf [21]) | N: redroot pigweed, herbicidal effect grade (redroot pigweed [22]) | O: lambsquarters, herbicidal effect grade (lambsquarters [23]) | P: chickweed, herbicidal effect grade (chickweed [24]) | R: persian speedwell, herbicidal effect grade (persian speedwell [25]) | further results
CCc1nn(C)c(=O)c(-c2c(-c3ccc(OC(F)(F)F)cc3)sc3ccc(F)cc23)c1O [2-412] | 4 (Herbicidal rate of 70% or more and less than 90%) | 0 (Herbicidal rate of 5% or less (almost no effect)) | 4 (Herbicidal rate of 70% or more and less than 90%) | 3 (Herbicidal rate of 40% or more and less than 70%) | 4 (Herbicidal rate of 70% or more and less than 90%) | 4 (Herbicidal rate of 70% or more and less than 90%) | 0 (Herbicidal rate of 5% or less (almost no effect)) | 0 (Herbicidal rate of 5% or less (almost no effect)) | 3 (Herbicidal rate of 40% or more and less than 70%) | 1 (Herbicidal rate of 5% or more and less than 20%) | 3 (Herbicidal rate of 40% or more and less than 70%) | 5 (Herbicidal rate of 90% or more (almost completely withered)) | 5 (Herbicidal rate of 90% or more (almost completely withered)) | 5 (Herbicidal rate of 90% or more (almost completely withered)) | 5 (Herbicidal rate of 90% or more (almost completely withered)) | herbicidal effect, F: southern crabgrass (southern crabgrass [2]): 0 (Herbicidal rate of 5% or less (almost no effect)); herbicidal effect, G: green foxtail (green foxtail [3]): 0 (Herbicidal rate of 5% or less (almost no effect)); herbicidal effect, H: barnyard grass (barnyard grass [4]): 0 (Herbicidal rate of 5% or less (almost no effect)); herbicidal effect, I: wild oat (wild oat [5]): 0 (Herbicidal rate of 5% or less (almost no effect)); herbicidal effect, J: blackgrass (blackgrass [6]): 0 (Herbicidal rate of 5% or less (almost no effect)); herbicidal effect, K: Italian ryegrass (Italian ryegrass [7]): 0 (Herbicidal rate of 5% or less (almost no effect)); herbicidal effect, L: windgrass (windgrass [8]): 0 (Herbicidal rate of 5% or less (almost no effect)); herbicidal effect, M: velvetleaf (velvetleaf [9]): 0 (Herbicidal rate of 5% or less (almost no effect)); herbicidal effect, N: redroot pigweed (redroot pigweed [10]): 2 (Herbicidal rate of 20% or more and less than 40%); herbicidal effect, O: lambsquarters (lambsquarters [11]): 1 (Herbicidal rate of 5% or more and less than 20%); herbicidal effect, P: chickweed (chickweed [12]): 0 (Herbicidal rate of 5% or less (almost no effect)); herbicidal effect, R: persian speedwell (persian speedwell [13]): 3 (Herbicidal rate of 40% or more and less than 70%)
Cc1nn(C)c(=O)c(-c2c(-c3ccc(Cl)cc3)sc3cc(Cl)ccc23)c1O [3-033] | 4 (Herbicidal rate of 70% or more and less than 90%) | 3 (Herbicidal rate of 40% or more and less than 70%) | 5 (Herbicidal rate of 90% or more (almost completely withered)) | 3 (Herbicidal rate of 40% or more and less than 70%) | 5 (Herbicidal rate of 90% or more (almost completely withered)) | 4 (Herbicidal rate of 70% or more and less than 90%) | 4 (Herbicidal rate of 70% or more and less than 90%) | 4 (Herbicidal rate of 70% or more and less than 90%) | 4 (Herbicidal rate of 70% or more and less than 90%) | 4 (Herbicidal rate of 70% or more and less than 90%) | 4 (Herbicidal rate of 70% or more and less than 90%) | 5 (Herbicidal rate of 90% or more (almost completely withered)) | 4 (Herbicidal rate of 70% or more and less than 90%) | 5 (Herbicidal rate of 90% or more (almost completely withered)) | 5 (Herbicidal rate of 90% or more (almost completely withered)) | F: southern crabgrass, herbicidal effect grade (southern crabgrass [2]): 0 (Herbicidal rate of 5% or less (almost no effect)); G: green foxtail, herbicidal effect grade (green foxtail [3]): 0 (Herbicidal rate of 5% or less (almost no effect)); H: barnyard grass, herbicidal effect grade (barnyard grass [4]): 0 (Herbicidal rate of 5% or less (almost no effect)); I: wild oat, herbicidal effect grade (wild oat [5]): 0 (Herbicidal rate of 5% or less (almost no effect)); J: blackgrass, herbicidal effect grade (blackgrass [6]): 0 (Herbicidal rate of 5% or less (almost no effect)); K: Italian ryegrass, herbicidal effect grade (Italian ryegrass [7]): 4 (Herbicidal rate of 70% or more and less than 90%); L: windgrass, herbicidal effect grade (windgrass [8]): 3 (Herbicidal rate of 40% or more and less than 70%); M: velvetleaf, herbicidal effect grade (velvetleaf [9]): 0 (Herbicidal rate of 5% or less (almost no effect)); N: redroot pigweed, herbicidal effect grade (redroot pigweed [10]): 4 (Herbicidal rate of 70% or more and less than 90%); O: lambsquarters, herbicidal effect grade (lambsquarters [11]): 3 (Herbicidal rate of 40% or more and less than 70%); P: chickweed, herbicidal effect grade (chickweed [12]): 2 (Herbicidal rate of 20% or more and less than 40%); R: persian speedwell, herbicidal effect grade (persian speedwell [13]): 3 (Herbicidal rate of 40% or more and less than 70%)
